# Measurements from patent US12213960B2, “Method of preventing or improving UV-induced skin damage using hydroangenol as active ingredient” (COSMAXBIO CO., LTD., priority 2017, dated 2025).
# Tests used:
# Format in all cases: cell-based, human
# HaCaT keratinocytes = test: MTT assay of cell viability/proliferation after UV-B damage, epidermal cells
# Protocol: (§1) Samples obtained in Examples 1 and 2 were measured in regards to the effect in recovering the skin damaged from UV-B exposure. In this experiment, HaCaT keratinocytes and HS68 fibroblasts were used as epidermal and dermal cells, respectively. In order to evaluate the possible efficacy of each sample in preventing or improving the UV-induced damage of skin cells, the cells were seeded into a 96-well microplate at a density of 1.0×10^4 cells/well and stabilized for 24 hours. Next, the culture medium was exchanged to a new one supplemented with the sample, and the cells were incubated for 24 hours. For UV-B irradiation, the culture medium was removed, washed with PBS, and exposed to UV-B radiation at 15 mJ/cm^2. After an incubation of 24 hours in a culture medium supplemented with the sample, the cells were subjected to an MTT assay to measure cell viability. The MTT assay measures the reduction of a tetrazolium component (MTT) into a formazan product by the mitochondria of viable cells. More specifically, 50 μl of a 5 mg/ml MTT solution was added to the cells, and after an incubation of 4 hours, the culture solution was completely removed and cells were dissolved in DMSO. The absorbance of the DMSO solution in the microplate was quantified by spectrophotometry at 540 nm.
# HS68 fibroblasts = test: MTT assay of cell viability/proliferation after UV-B damage, dermal cells
# Protocol: as §1
# [1] = system: MMP-1 secretion in epidermal HaCat keratinocytes; test: Quantitative analysis of MMP-1 secretion (ELISA), epidermal cells; details: epidermal cells damaged by UV-B radiation of 15 mJ/cm2
# Protocol: (§2) Samples obtained in Examples 1 and 2 were measured in regards to the inhibitory effect against the secretion of MMP-1 in epidermal HaCat keratinocytes and dermal Hs68 fibroblasts. In order to evaluate the effect of each sample in reducing MMP-1, the cells were seeded into a 24-well microplate at a density of 1.0×10^5 cells/well and stabilized for 24 hours. Next, the culture medium was exchanged to a new one supplemented with the sample, and the cells were incubated for 24 hours. For UV-B irradiation, the culture medium was removed, washed with PBS, and exposed to UV-B radiation at 15 mJ/cm^2. After an incubation of 48 hours in a culture medium supplemented with the sample, the resultant supernatant was measured in regards to the degree of secretion of MMP-1 by using an MMP-1 Human ELISA kit (ab100603, abcam, US).
# [2] = system: MMP-1 secretion in dermal Hs68 fibroblasts; test: Quantitative analysis of MMP-1 secretion (ELISA), dermal cells
# Protocol: as §2
# [3] = system: procollagen type 1 secretion in dermal Hs68 fibroblasts; test: Analysis of procollagen type-1 content (PIP EIA)
# Protocol: Samples obtained in Examples 1 or 2 were measured in regards to the effect of increasing procollagen type 1 in dermal Hs68 fibroblasts. In order to evaluate the effect of each sample in increasing secretion of procollagen type 1, the cells were seeded into a 24-well microplate at a density of 1.0×10^5 cells/well and stabilized for 24 hours. Next, the culture medium was exchanged to a new one supplemented with the sample, and the cells were incubated for 24 hours. For UV-B irradiation, the culture medium was removed, washed with PBS, and exposed to UV-B radiation at 15 mJ/cm^2. After an incubation of 48 hours in a culture medium supplemented with the sample, the resultant supernatant was measured in regards to the degree of secretion of procollagen type 1 by using a Procollagen type 1 C-peptide (PIP) EIA kit (Mk101, Takara, Japan).
# [4] = system: hyaluronic acid secretion in epidermal HaCaT keratinocytes; test: Analysis of hyaluronic acid content (ELISA), epidermal cells
# Protocol: (§3) Samples obtained in Examples 1 and 2 were measured in regards to the effect of increasing hyaluronic acid in epidermal HaCaT keratinocytes and dermal Hs68 fibroblasts. In order to evaluate the effect of each sample in increasing hyaluronic acid, the cells were seeded into a 24-well microplate at a density of 1.0×10^5 cells/well and stabilized for 24 hours. Next, the culture medium was exchanged to a new one supplemented with the sample, and the cells were incubated for 24 hours. For UV-B irradiation, the culture medium was removed, washed with PBS, and exposed to UV-B radiation at 15 mJ/cm^2. After an incubation of 24 hours in a culture medium supplemented with the sample, the resultant supernatant was measured in regards to the degree of secretion of hyaluronic acid by using a TECOR Hyaluronic Acid PLUS ELISA kit (TE 1018-2, TECO Medical Group, US).
# [5] = system: hyaluronic acid secretion in dermal Hs68 fibroblasts; test: Analysis of hyaluronic acid content (ELISA), dermal cells
# Protocol: as §3
# [6] = 1 μM hydrangenol, epidermal cells, UV-B 15 mJ/cm2
# [7] = epidermal cells damaged by UV-B radiation of 15 mJ/cm2
# [8] = 1 μM hydrangenol, dermal cells, UV-B 15 mJ/cm2
# [9] = dermal cells damaged by UV-B radiation of 15 mJ/cm2
structure (smiles),measurement,setting,value
"O=C1OC(c2ccc(O)cc2)Cc2cccc(O)c21 (stereo not drawn) [hydrangenol, 8-hydroxy-3-(4-hydroxyphenyl)-3,4-dihydroisochromen-1-one]",cell proliferation effect compared with 10 μM EGCG,HaCaT keratinocytes; [6],equivalent to 10 μM EGCG
same,cell proliferation,HaCaT keratinocytes; [7],effective in promoting cell proliferation
same,cytotoxicity,HaCaT keratinocytes; [7],non-cytotoxic
same,cell proliferation effect compared with 10 μM EGCG,HS68 fibroblasts; [8],equivalent to 10 μM EGCG
same,cell proliferation,HS68 fibroblasts; [9],effective in promoting cell proliferation
same,cytotoxicity,HS68 fibroblasts; [9],non-cytotoxic
same,production of MMP-1,[1],inhibited the production of MMP-1 in a concentration-dependent manner
same,production of MMP-1,[2]; [9],inhibited the production of MMP-1 in a concentration-dependent manner
same,inhibitory effect against the production of MMP-1 compared with EGCG,"[2]; dermal cells, same concentration as EGCG",far superior to the EGCG
same,procollagen production effect compared with 10 μM EGCG,[3]; [8],equivalent to 10 μM EGCG
same,production of procollagen,[3]; [9],increased the production of procollagen
same,effect in producing hyaluronic acid,[4]; [6],excellent effect in producing hyaluronic acid
same,production of hyaluronic acid,[4]; [7],increased the production of hyaluronic acid
same,effect in producing hyaluronic acid,[5]; [8],excellent effect in producing hyaluronic acid
same,production of hyaluronic acid,[5]; [9],increased the production of hyaluronic acid
